These results are taken from patent US11331280B2, “Methods for inhibiting conversion of choline to trimethylamine (TMA)” (The Procter & Gamble Company, priority 2018, dated 2022).

Experiment [1] has as its system human fecal polymicrobial community. The experiment in a line: Example 11: human fecal polymicrobial incubation with d9-choline, compound screening. In kind it is cell-based. Particulars: TABLE 11, fecal slurry, 50 μM d9-choline chloride, 20 hours, doses 250 μM to 0.238 nM, read-out: TMA Inhibition (IC50, mol/L). As to the method:
Human fecal polymicrobial incubation with deuterium labeled choline compound screening method, including cell viability assay. All materials were pre-reduced in an anaerobic chamber for 24 hours before using in the experiments and experimental procedures were performed under anaerobic conditions (chamber purged with 85% nitrogen, 5% hydrogen, 10% carbon dioxide).
Human fecal samples were collected from a healthy volunteer with no chronic illnesses, blood borne diseases or active infections. The volunteer had not received antibiotics within two months prior to donation and provided written informed consent. Samples were diluted to make a 20% (w/v) fecal slurry by resuspension of the feces in a media containing 3% (w/v) tryptic soy broth (BBL #211825), 1% (w/v) trehalose (Sigma #T9631), pH 7.3. The fecal slurry was homogenized and filtered by hand using a stomacher bag with an integrated 170 μm membrane. DMSO (5% (w/v)) was added to the filtered slurry and aliquots were stored in cryogenic vials at −80° C. until use. […] After 20 hours, an aliquot of the fecal polymicrobial community was analyzed for viability using PrestoBlue cell viability reagent (Thermo Fisher Scientific, USA) as described below. […] The products were determined by LC/MS/MS and IC50 values were calculated as described previously for detection and analysis of TMA and d9-TMA in EXAMPLE 9. […]

Experiment [2] relates to Proteus mirabilis 29906 (Pm) lysate. The experiment in a line: Example 10: inhibition of formation of TMA from choline by compounds in Proteus mirabilis lysate. In kind it is biochemical. Particulars: TABLE 10, 50 μM d9-choline chloride, two hours at 37° C., read-out: TMA Inhibition (IC50, mol/L). As to the method: This example provides an exemplary assay for identifying and characterizing compounds that inhibit the formation of TMA from choline.
Proteus mirabilis 29906 (Pm) strain was grown aerobically overnight in 500 ml of Nutrient Broth media (3 g/L beef extract, 5 g/L Peptone; Difco #234000) at 37° C. with 250 rpm shaking. The biomass was pelleted by centrifugation at 6000×g for 12 minutes at 4° C. The cell pellet was suspended in 240 mL of ice-cold 1× Phosphate Buffered Saline (Ca^2+ and Mg^2+ free). Ninety micrograms of Lysozyme (Sigma #L6876 Lot #SLBG8654V; Sigma-Aldrich Corp., St. Louis, Mo.) was added and incubated with 320 rpm shaking for 30 minutes at 4° C. Lysis was achieved via French press with a 4° C. prechilled 1″ diameter chamber at 1000 psi (high ratio; internal PSI equivalent ˜16000). The lysate was centrifuged at 6,000×g for 12 minutes at 4° C. to pellet extra debris. A protein concentration of the centrifuged lysate supernatant was determined by a BCA Protein Assay Kit (Pierce #23225; Thermo Fisher Scientific Co., Waltham, Mass.) and protein concentration adjusted to 3 mg/ml with 1× Dulbecco's phosphate buffered saline (DPBS). […]
The plates were again agitated on a plate shaker for 1 minute and incubated at 37° C. for two hours. […] The supernatant was removed and analyzed as described below. […]

Each structure is given as a SMILES string.

As for `C[S+](C)(=O)CCO` [(2-hydroxyethyl) dimethylsulfoxonium chloride], the results for the IC50 in experiment [1] and in experiment [2] were 0.0973 µM and 0.00774 µM, respectively.
